Experimental data from article PMC7937321 (Genes and Environment, 2021).
Like-named read-outs stand apart in the source and are kept apart here.

Key:
TK6 cells = experiment: Cytotoxicity in the TK6 assay (CE, RS, RSG, RTG); settings: for RS: graph data
Method: (§1) Briefly, test substances were dissolved in an appropriate solvent (DMSO or ethanol) and then serially diluted to prepare final concentrations. […] The 4 h and 24 h treatments were conducted by shaking and static exposures, respectively. After treatment with test substances, cells were centrifuged (1000 rpm, 5 min), supernatants were removed, and cells were washed with a serum-free medium or Hank’s Balanced Salt Solution. After centrifugation (1000 rpm, 5 min) to remove the supernatant, cells (2 × 10^7 cells) were dispersed in an RPMI medium containing 10% serum, and cell concentration was measured. Treated cells were cultured at 37 °C with 5% CO2 condition and used for TK6 assays. At that time, to calculate the cloning efficiency (CE) (Eq. 1), the cells were cultured in a 96-well microplate at a concentration of about 1.6 cells/well for 2 weeks.
(§2) CE, the cell colony formation rate, was calculated using Eq. 1 according to the Poisson distribution equation. EW was the number of wells without colonies, and TW was the total number of wells. N was the average number of cells per well (N = 1.6). 1 CE=−lnEW/TW/N
(§3) Additionally, CE was adjusted by the following calculation (Eq. 2) due to cell loss when exposure caused cytotoxicity. “The number of cells at the end of the treatment” was the number of cells obtained after centrifugation at the end of the treatment in the above-described exposure treatment of the test substance. The “cell number at the start of treatment” was 2 × 10^7. 2 AdjustedCE=CE×number of cellsatendof treatment/number of cellsatthe start of treatment
(§4) CE0 seeding, in which cells were seeded immediately after treatment, and CE3 seeding, in which cells were seeded 3 days after treatment, to examine cell viability in the TK6 assay described below. The relative cell viability RS0 (%) just after the treatment with the test substance was calculated from CE0, following Eq. 3. The survival rate of the negative control group was defined as 100%. 3 RS0%=adjusted CE0 of treatment culture/adjusted CE0 of solvent control×100
(§5) The TK6 assay is conducted between 20 and 10% RS0 as a maximum dose if cytotoxicity is observed. […] When the main TK6 assay was difficult to conduct under the condition of RS0 values from 20 to 10%, the test was conducted between 20 and 10% relative total growth (RTG), described later, as a maximum dose.
(§6) Besides RS0, relative suspension growth (RSG) and RTG as other cytotoxicity indices (Eq. 4) were used. When cells were cultured for 3 days after treatment with the test substance, suspension cell growth ratio 1 (SG1) was the growth ratio from day 0 to day 1 (cell concentration on day 1/cell concentration on day 0). The suspension cell growth ratio 2 (SG2) was the growth ratio from day 1 to day 2 (cell concentration on day 2/cell concentration on day 1). The RSG value was calculated by dividing the total SG value of the untreated group for 3 days by the total SG value of the treated group for the same 3 days (Eq. 4).
(§7) On the third day of culture, CE3 plates for determining plating efficiency and mutant frequency (MF) plates for mutation detection were prepared. CE3 plates were seeded in 96-well microplates at a concentration of about 1.6 cells/well.

[1] = Cytotoxicity in the TK6 assay (CE, RS, RSG, RTG); settings: human; for viability at 24 h, 173.7 μg/mL: 173.70 μg/mL; for viability at 24 h, 277.9 μg/mL: 277.90 μg/mL; for viability at 4 h, 444.7 μg/mL: dose 444.70 μg/mL
Method: as §1, §2, §3, §4, §5, §6, §7

[2] = tested on: TA1538, TA100, TA98, TA97, TA1535; settings: cited from earlier work
[3] = 24 h treatment, -S9 mix, 173.70 μg/mL
[4] = 24 h treatment, -S9 mix, 277.90 μg/mL
[5] = 24 h treatment, -S9 mix, 444.70 μg/mL
[6] = 24 h treatment, -S9 mix, 711.5 μg/mL
[7] = 24 h treatment, -S9 mix, 1138.4 μg/mL
[8] = 24 h treatment, -S9 mix, 1821.4 μg/mL
[9] = Short treatment, +S9 mix, dose 173.7 μg/mL
[10] = Short treatment, +S9 mix, dose 277.9 μg/mL
[11] = Short treatment, +S9 mix, dose 445 μg/mL
[12] = Short treatment, +S9 mix, dose 712 μg/mL
[13] = Short treatment, +S9 mix, dose 1138 μg/mL
[14] = Short treatment, +S9 mix, dose 1821 μg/mL
[15] = Short treatment, -S9 mix, dose 173.70 μg/mL
[16] = Short treatment, -S9 mix, dose 277.90 μg/mL
[17] = Short treatment, -S9 mix, dose 444.70 μg/mL
[18] = Short treatment, -S9 mix, dose 711.5 μg/mL
[19] = Short treatment, -S9 mix, dose 1138.4 μg/mL
[20] = Short treatment, -S9 mix, dose 1821.4 μg/mL
[21] = TK6 cells with rat liver S9 mix, CE0 (%), cell viability on Day 0, Short treatment, +S9 mix
[22] = TK6 cells with rat liver S9 mix, CE3 (%), cell viability on Day 3, Short treatment, +S9 mix
[23] = TK6 cells without S9 mix, CE0 (%), cell viability on Day 0, 24 h treatment, -S9 mix
[24] = TK6 cells without S9 mix, CE0 (%), cell viability on Day 0, Short treatment, -S9 mix
[25] = TK6 cells without S9 mix, CE3 (%), cell viability on Day 3, 24 h treatment, -S9 mix
[26] = TK6 cells without S9 mix, CE3 (%), cell viability on Day 3, Short treatment, -S9 mix

## Nc1cc([N+](=O)[O-])ccc1C(=O)O [4-Nitroanthranilic acid]
TK6 cells; 1138 μg/mL, short-term without metabolic activation
  cytotoxicity: More than 50%
TK6 cells; 1821 μg/mL, long-term treatment
  cytotoxicity: More than 80%
TK6 cells; 1821 μg/mL, short-term with metabolic activation
  cytotoxicity: approximately 100%
TK6 cells; 1821 μg/mL, short-term without metabolic activation
  cytotoxicity: More than 50%
TK6 cells; [3]
  Adjusted CE0(%): 111.3%
  RS0 (%): 133.0%
  RSG: 1.273
TK6 cells; [4]
  Adjusted CE0(%): 40.4%
  RS0 (%): 48.3%
  RSG: 0.978
TK6 cells; [5]
  Adjusted CE0(%): 71.5%
  RS0 (%): 85.4%
  RSG: 1.146
TK6 cells; [6]
  Adjusted CE0(%): 49.4%
  RS0 (%): 59.0%
  RSG: 1.081
TK6 cells; [7]
  Adjusted CE0(%): 26.6%
  RS0 (%): 31.8%
  RSG: 0.835
TK6 cells; [8]
  Adjusted CE0(%): 14.0%
  RS0 (%): 16.7%
  RSG: 0.892
TK6 cells; [9]
  Adjusted CE0(%): 84.1%
  RS0 (%): 71.1%
  RSG: 1.078
  RS: 71.1
TK6 cells; [10]
  Adjusted CE0(%): 107.8%
  RS0 (%): 91.1%
  RSG: 0.902
  RS: 91.1
TK6 cells; [11]
  Adjusted CE0(%): 58.9%
  RS0 (%): 49.8%
  RSG: 0.653
  RS: 49.8
TK6 cells; [12]
  Adjusted CE0(%): 79.3%
  RS0 (%): 67.0%
  RSG: 0.824
  RS: 67.0
TK6 cells; [13]
  Adjusted CE0(%): 96.3%
  RS0 (%): 81.4%
  RSG: 0.854
  RS: 81.4
TK6 cells; [14]
  Adjusted CE0(%): 3.0%
  RS0 (%): 2.6%
  RSG: 0.036
  RS: 2.6
TK6 cells; [15]
  Adjusted CE0(%): 132.4%
  RS0 (%): 186.4%
  RSG: 1.135
  RS: 186.4
TK6 cells; [16]
  Adjusted CE0(%): 61.6%
  RS0 (%): 86.8%
  RSG: 0.893
  RS: 86.8
TK6 cells; [17]
  Adjusted CE0(%): 84.7%
  RS0 (%): 119.3%
  RSG: 0.880
  RS: 119.3
TK6 cells; [18]
  Adjusted CE0(%): 60.6%
  RS0 (%): 85.4%
  RSG: 0.786
  RS: 85.4
TK6 cells; [19]
  Adjusted CE0(%): 33.1%
  RS0 (%): 46.6%
  RSG: 0.678
  RS: 46.6
TK6 cells; [20]
  Adjusted CE0(%): 22.9%
  RS0 (%): 32.3%
  RSG: 0.302
  RS: 32.3
TK6 cells; as fraction in mutation frequency table, 24 h treatment, -S9 mix, 173.70 μg/mL
  CE3: 0.841
TK6 cells; as fraction in mutation frequency table, 24 h treatment, -S9 mix, 277.90 μg/mL
  CE3: 0.841
TK6 cells; as fraction in mutation frequency table, 24 h treatment, -S9 mix, 444.70 μg/mL
  CE3: 0.793
TK6 cells; as fraction in mutation frequency table, 24 h treatment, -S9 mix, 711.5 μg/mL
  CE3: 0.687
TK6 cells; as fraction in mutation frequency table, 24 h treatment, -S9 mix, 1138.4 μg/mL
  CE3: 0.950
TK6 cells; as fraction in mutation frequency table, 24 h treatment, -S9 mix, 1821.4 μg/mL
  CE3: 0.433
TK6 cells; as fraction, mutation frequency table, Short treatment, +S9 mix, dose 173.7 μg/mL
  CE3: 0.706
TK6 cells; as fraction, mutation frequency table, Short treatment, +S9 mix, dose 277.9 μg/mL
  CE3: 0.667
TK6 cells; as fraction, mutation frequency table, Short treatment, +S9 mix, dose 445 μg/mL
  CE3: 0.816
TK6 cells; as fraction, mutation frequency table, Short treatment, +S9 mix, dose 712 μg/mL
  CE3: 0.980
TK6 cells; as fraction, mutation frequency table, Short treatment, +S9 mix, dose 1138 μg/mL
  CE3: 0.841
TK6 cells; as fraction, mutation frequency table, Short treatment, +S9 mix, dose 1821 μg/mL
  CE3: 0.446
TK6 cells; as fraction, mutation frequency table, Short treatment, -S9 mix, dose 173.70 μg/mL
  CE3: 0.893
TK6 cells; as fraction, mutation frequency table, Short treatment, -S9 mix, dose 277.90 μg/mL
  CE3: 0.770
TK6 cells; as fraction, mutation frequency table, Short treatment, -S9 mix, dose 444.70 μg/mL
  CE3: 1.046
TK6 cells; as fraction, mutation frequency table, Short treatment, -S9 mix, dose 711.5 μg/mL
  CE3: 1.012
TK6 cells; as fraction, mutation frequency table, Short treatment, -S9 mix, dose 1138.4 μg/mL
  CE3: 0.950
TK6 cells; as fraction, mutation frequency table, Short treatment, -S9 mix, dose 1821.4 μg/mL
  CE3: 1.046
TK6 cells; 24 h, -S9 mix, 173.70 μg/mL
  RS: 133.0
TK6 cells; 24 h, -S9 mix, 277.90 μg/mL
  RS: 48.3
TK6 cells; 24 h, -S9 mix, 444.70 μg/mL
  RS: 85.4
TK6 cells; 24 h, -S9 mix, 711.5 μg/mL
  RS: 59.0
TK6 cells; 24 h, -S9 mix, 1138.4 μg/mL
  RS: 31.8
TK6 cells; 24 h, -S9 mix, 1821.4 μg/mL
  RS: 16.7
[1]; TK6 cells with rat liver S9 mix, CE0 (%), cell viability on Day 0, Short treatment, +S9 mix, dose 173.7 μg/mL
  viability at 4 h, 173.7 μg/mL: 84.1%
[1]; TK6 cells with rat liver S9 mix, CE0 (%), cell viability on Day 0, Short treatment, +S9 mix, dose 277.9 μg/mL
  viability at 4 h, 277.9 μg/mL: 98%
[1]; [21]
  viability at 4 h, 445 μg/mL: 72.7%
  viability at 4 h, 712 μg/mL: 79.3%
  viability at 4 h, 1138 μg/mL: 108%
  viability at 4 h, 1821 μg/mL: 3.3%
[1]; TK6 cells with rat liver S9 mix, CE3 (%), cell viability on Day 3, Short treatment, +S9 mix, dose 173.7 μg/mL
  viability at 4 h, 173.7 μg/mL: 70.6%
[1]; TK6 cells with rat liver S9 mix, CE3 (%), cell viability on Day 3, Short treatment, +S9 mix, dose 277.9 μg/mL
  viability at 4 h, 277.9 μg/mL: 66.7%
[1]; [22]
  viability at 4 h, 445 μg/mL: 81.6%
  viability at 4 h, 712 μg/mL: 98%
  viability at 4 h, 1138 μg/mL: 84.1%
  viability at 4 h, 1821 μg/mL: 44.6%
[1]; [23]
  viability at 24 h, 173.7 μg/mL: 47.4%
  viability at 24 h, 277.9 μg/mL: 23.4%
  viability at 24 h, 711.5 μg/mL: 42%
  viability at 24 h, 1821.4 μg/mL: 24.4%
[1]; TK6 cells without S9 mix, CE0 (%), cell viability on Day 0, 24 h treatment, -S9 mix, 444.70 μg/mL
  viability at 24 h, 444.7 μg/mL: 42%
[1]; TK6 cells without S9 mix, CE0 (%), cell viability on Day 0, 24 h treatment, -S9 mix, 1138.4 μg/mL
  viability at 24 h, 1138.4 μg/mL: 30.4%
[1]; TK6 cells without S9 mix, CE0 (%), cell viability on Day 0, Short treatment, -S9 mix, dose 173.70 μg/mL
  viability at 4 h, 173.7 μg/mL: 120%
[1]; TK6 cells without S9 mix, CE0 (%), cell viability on Day 0, Short treatment, -S9 mix, dose 277.90 μg/mL
  viability at 4 h, 277.9 μg/mL: 77%
[1]; [24]
  viability at 4 h, 444.7 μg/mL: 77%
  viability at 4 h, 711.5 μg/mL: 74.8%
  viability at 4 h, 1138.4 μg/mL: 46%
  viability at 4 h, 1821.4 μg/mL: 29.4%
[1]; [25]
  viability at 24 h, 173.7 μg/mL: 84.1%
  viability at 24 h, 277.9 μg/mL: 84.1%
  viability at 24 h, 711.5 μg/mL: 68.7%
  viability at 24 h, 1821.4 μg/mL: 43.3%
[1]; TK6 cells without S9 mix, CE3 (%), cell viability on Day 3, Short treatment, -S9 mix, dose 173.70 μg/mL
  viability at 4 h, 173.7 μg/mL: 89.3%
[1]; TK6 cells without S9 mix, CE3 (%), cell viability on Day 3, Short treatment, -S9 mix, dose 277.90 μg/mL
  viability at 4 h, 277.9 μg/mL: 77%
[1]; [26]
  viability at 4 h, 444.7 μg/mL: 105%
  viability at 4 h, 711.5 μg/mL: 101%
  viability at 4 h, 1138.4 μg/mL: 95%
  viability at 4 h, 1821.4 μg/mL: 105%
[2]; TA100 with S9, ref Table 2
  The Highest Specific Activity and the Strain: 2830 revertants/mg
[2]; TA1535 with S9, ref [33]
  The Highest Specific Activity and the Strain: 3600 revertants/mg
[2]; with S9, ref [18]-[40], Table 2
  Bacterial reverse mutation assay, With S9: Pos
[2]; without S9, ref [18]-[40], Table 2
  Bacterial reverse mutation assay, Without S9: Pos
